Assay results published in US20260070929A1, “METHODS AND COMPOSITIONS FOR MODULATING KRAS(G12D)” (Ranok Therapeutics (Hangzhou) Co. LTD., priority 2022, published 2026).
pEC50, pIC50: −log10 of the molar value.

Key:
[1] = test system: A-427 lung carcinoma cells [heterozygous G12D]; assay: Cancer cell line proliferation (CellTiter-Glo), A-427; format: cell-based; details: Homo sapiens, A-427 cells, 72 hr treatment, read-out: A427 CTG (EC50)
In short: (§1)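 Cells at 4,000/well grown 72 hr, then treated with 3-fold serial dilutions (20 μM to 1.02 nM, 0.5% DMSO final) for 72 hr at 37° C/5% CO2. Viability by CellTiter-Glo luminescence; EC50 values calculated.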

[2] = test system: ASPC1 pancreatic adenocarcinoma cells [homozygous G12D]; assay: Cancer cell line proliferation (CellTiter-Glo), ASPC1; format: cell-based; details: Homo sapiens, ASPC1, 72 h, 72 hr treatment, read-out: ASPC-1 CTG (EC50)
Method: The following cancer cell lines were employed: AGS gastric carcinoma [heterozygous G12D](ATCC, CRL-1739); A-427 lung carcinoma [heterozygous G12D](ATCC, HTB-53); ASPC1 pancreatic adenocarcinoma [homozygous G12D](ATCC, CRL-1682) and SW1990 pancreatic adenocarcinoma [homozygous G12D](ATCC CRL-2172). Cell lines were cultured essentially according to ATCC recommendations.
AGS, A-427, ASPC1, SW1990, and GP2D cells were plated in 96-well tissue culture plates at 4,000 cells/well and incubated at 37° C./5% CO2 for 72 hr in 100 μl of media. 3-fold serial dilutions of each test compound were prepared ranging from 20 μM to 1.02 nM. Each cell line was then treated with test compounds at various concentrations with a final concentration of 0.5% DMSO/well, and then incubated at 37° C./5% CO2 for 72 hr. 100 µl of CellTiter-Glo® Reagent (Promega Corporation, Madison, WI) was added to each well and processed according manufacturer's protocol. Results were analyzed and EC50 values were calculated in GraphPad 7 software.

[3] = test system: AGS gastric carcinoma cells [heterozygous G12D]; assay: Cancer cell line proliferation (CellTiter-Glo), AGS; format: cell-based; details: Homo sapiens, 72 hr treatment, read-out: AGS CTG (EC50)
In short: as §1

[4] = molecular target: T1, KRAS(G12D)/SOS1 (Homo sapiens, UniProt P01116, G12D); assay: KRAS(G12D)/SOS1 homogeneous time-resolved fluorescence (HTRF) assay; format: binding; details: absence of GTP; 4° C., 3 hr
T1 construct: purchased Cisbio 63ADK000CB17PEH
T1 sequence (P01116 1-188 isoform P01116-2 G12D): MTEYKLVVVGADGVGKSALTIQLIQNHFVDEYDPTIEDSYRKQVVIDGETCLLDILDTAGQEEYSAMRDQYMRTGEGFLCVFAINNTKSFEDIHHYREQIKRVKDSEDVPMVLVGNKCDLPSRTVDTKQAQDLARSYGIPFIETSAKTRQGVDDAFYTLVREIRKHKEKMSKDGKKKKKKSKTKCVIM
In short: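 HTRF kit assay of compound-blocked KRAS(G12D)–SOS1 interaction, run without GTP. Compounds were tested as 3-fold dilutions from 20 µM to 1.02 nM and incubated with the reaction components for 3 hr at 4 °C, sealed. IC50 was taken as the concentration giving 50% of maximal inhibition.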

SMILES	pEC50 [1]	pEC50 [2]	pEC50 [3]	pIC50 [4]
CCNC(=O)c1nnc(-c2cc(C(C)C)c(O)cc2O)n1-c1ccc(CN2CCN([C@H]3C[C@@H](COc4nc(N5CC6CCC(C5)N6)c5cnc(-c6cccc7ccccc67)c(F)c5n4)N(C)C3)CC2)cc1 [Compound 34]	6.00 to 7.00	6.00 to 7.00	> 7.00	< 6.00
CNC(=O)c1nnc(-c2cc(C(C)C)c(O)cc2O)n1-c1ccc(CN2CCN(C(=O)C3CCN([C@H]4C[C@@H](COc5nc(N6CC7CCC(C6)N7)c6cnc(-c7cccc8cccc(Cl)c78)c(F)c6n5)N(C)C4)CC3)CC2)cc1 [Compound 7]	6.00 to 7.00	6.00 to 7.00	> 7.00	6.00 to 7.00
C#Cc1cccc2cccc(-c3ncc4c(N5CC6CCC(C5)N6)nc(OCCN5CCN(Cc6ccc(-n7c(O)nnc7-c7cc(C(C)C)c(O)cc7O)cc6)CC5)nc4c3F)c12 [Compound 13]	6.00 to 7.00	< 6.00	6.00 to 7.00	6.00 to 7.00
C#Cc1cccc2cccc(-c3ncc4c(N5CC6CCC(C5)N6)nc(OC[C@@H]5CC[C@H](CN6CCN(Cc7ccc8c(c7)CN(C(=O)c7cc(C(C)C)c(O)cc7O)C8)CC6)N5C)nc4c3F)c12 [Compound 39]	6.00 to 7.00	< 6.00	6.00 to 7.00	> 7.00
C#Cc1cccc2cc(O)cc(-c3ncc4c(N5CC6CNC(C6)C5)nc(OCC5(CN6CCN(CC7CCN(Cc8ccc(-n9c(C(=O)NCC(F)(F)F)nnc9-c9cc(C(C)C)c(O)cc9O)cc8)CC7)CC6)CC5)nc4c3F)c12 (centres unmarked) [Compound 135]	6.00 to 7.00	6.00 to 7.00	6.00 to 7.00	> 7.00
CC(C)c1cc(C(=O)N2Cc3ccc(CN4CCN(C[C@H]5CC[C@@H](COc6nc(N7CC8CCC(C7)N8)c7cnc(-c8cc(O)cc9ccccc89)c(F)c7n6)N5C)CC4)cc3C2)c(O)cc1O [Compound 64]	6.00 to 7.00	6.00 to 7.00	6.00 to 7.00	> 7.00
C#Cc1cccc2cccc(-c3ncc4c(N5CC6CCC(C5)N6)nc(OCC5(CN6CCN(C(=O)C7CCN(Cc8ccc(-n9c(C(=O)NCC)nnc9-c9cc(C(C)C)c(O)cc9O)cc8)CC7)CC6)CC5)nc4c3F)c12 [Compound 19]	6.00 to 7.00	6.00 to 7.00	> 7.00	> 7.00
CCNC(=O)c1nnc(-c2cc(C(C)C)c(O)cc2O)n1-c1ccc(CN2CCN(C[C@H]3CC[C@@H](COc4nc(N5CC6CCC(C5)N6)c5cnc(-c6cc(O)cc7ccccc67)c(F)c5n4)N3C)CC2)cc1 [Compound 65]	> 7.00	6.00 to 7.00	> 7.00	> 7.00
Cc1c(F)cccc1-c1ncc2c(N3CC4CCC(C3)N4)nc(OC[C@@H]3C[C@H](N4CCN(Cc5ccc6c(c5)CN(C(=O)c5cc(C(C)C)c(O)cc5O)C6)CC4)CN3C)nc2c1F [Compound 61]	6.00 to 7.00	6.00 to 7.00	6.00 to 7.00	< 6.00
C#Cc1cccc2cccc(-c3ncc4c(N5CC6CCC(C5)N6)nc(OC[C@@H]5C[C@H](N6CCN(Cc7ccc(-n8c(O)nnc8-c8cc(C(C)C)c(O)cc8O)cc7)CC6)CN5C)nc4c3F)c12 [Compound 26]	6.00 to 7.00	< 6.00	6.00 to 7.00	> 7.00
C#Cc1cccc2cc(O)cc(-c3ncc4c(N5CC6CNC(C6)C5)nc(OCC5(CN6CCN(CC7CCN(C(=O)C8CCN(Cc9ccc%10c(c9)CN(C(=O)c9cc(C(C)C)c(O)cc9O)C%10)CC8)CC7)CC6)CC5)nc4c3F)c12 (centres unmarked) [Compound 136]	6.00 to 7.00	< 6.00	6.00 to 7.00	6.00 to 7.00
